{"source": "ChEMBL document CHEMBL1201862", "about": "“PubChem BioAssay data set” (2004)", "key": {"Danio rerio": {"tested_on": "Danio rerio", "experiment": "In Vivo Angiogenesis Dose-Response Confirmation. [Related pubchem assays: 732 (Assay preceding this confirmatory assay.)]", "format": "functional, organism-based"}, "[1]": {"experiment": "Luminescence Cell-Based Dose Response to Identify Activators of 5'UTR Stem-Loop Driven Prion Protein mRNA Translation in H4-C Neuroglioblastoma Cells. [Related pubchem assays: 1829 (Project Summary), 1814 (Primary HTS)]", "format": "functional"}, "[2]": {"molecular_target": "T1, RNA-binding protein pos-1 (Caenorhabditis elegans, UniProt G5EF15)", "T1 sequence (G5EF15 whole entry)": "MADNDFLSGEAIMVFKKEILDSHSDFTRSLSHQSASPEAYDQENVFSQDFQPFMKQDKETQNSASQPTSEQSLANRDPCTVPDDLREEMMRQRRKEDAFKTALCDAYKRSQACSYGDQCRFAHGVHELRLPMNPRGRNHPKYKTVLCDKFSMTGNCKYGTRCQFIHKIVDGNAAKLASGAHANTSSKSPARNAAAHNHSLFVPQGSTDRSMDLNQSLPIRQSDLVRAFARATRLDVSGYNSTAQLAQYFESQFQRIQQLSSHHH", "experiment": "disruptors of C. elegans POS-1 RNA interaction – biochemical, fluorescence polarization, dose response (AID 1964);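 also: purified POS-1 fused to maltose binding protein made in E. coli; potency of compounds blocking POS-1 binding to fluorescent RNA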"}, "[3]": {"experiment": "Luminescence Cell-Based Dose Response HTS to Identify Activators of Luciferase Translation or Activity in H4 […] Cells. [Related pubchem assays: 1829 (Project Summary), 1814 (Primary HTS)]", "format": "functional"}, "H4": {"tested_on": "H4", "experiment": "Luminescence Cell-Based Dose Response HTS to Identify Activators of 5'UTR Stem-Loop Driven Prion Protein mRNA Translation in H4 Neuroglioblastoma Cells. [Related pubchem assays: 1829 (Project Summary), 1814 (Primary HTS)]", "format": "functional", "conditions": "Homo sapiens"}, "[4]": {"molecular_target": "T2, Zinc finger protein mex-5 (Caenorhabditis elegans, UniProt Q9XUB2)", "T2 sequence (Q9XUB2 whole entry)": "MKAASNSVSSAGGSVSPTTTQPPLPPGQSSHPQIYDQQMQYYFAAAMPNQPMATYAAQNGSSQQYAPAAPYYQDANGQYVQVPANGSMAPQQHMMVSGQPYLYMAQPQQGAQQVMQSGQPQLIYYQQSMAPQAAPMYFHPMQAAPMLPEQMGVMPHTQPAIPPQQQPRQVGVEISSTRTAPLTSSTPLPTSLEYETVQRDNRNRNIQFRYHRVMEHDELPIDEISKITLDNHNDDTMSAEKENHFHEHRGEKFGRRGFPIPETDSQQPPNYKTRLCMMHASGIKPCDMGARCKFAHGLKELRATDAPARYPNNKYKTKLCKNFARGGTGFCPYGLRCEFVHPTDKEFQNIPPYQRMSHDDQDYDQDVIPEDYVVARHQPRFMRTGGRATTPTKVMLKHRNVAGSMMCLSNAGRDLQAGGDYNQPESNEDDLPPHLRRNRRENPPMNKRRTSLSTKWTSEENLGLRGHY", "experiment": "potency of MEX-5 RNA-binding blockers – biochemical, C. elegans, fluorescence polarization, dose response (AID 1960)"}, "[5]": {"experiment": "Luminescence Cell-Based Dose Response to Identify Activators of Luciferase Translation or Activity in H4-C Neuroglioblastoma Cells. [Related pubchem assays: 1829 (Project Summary), 1814 (Primary HTS)]", "format": "functional"}, "Estrogen receptor beta": {"molecular_target": "Estrogen receptor beta (Homo sapiens, UniProt Q92731)", "sequence (Q92731 whole entry)": "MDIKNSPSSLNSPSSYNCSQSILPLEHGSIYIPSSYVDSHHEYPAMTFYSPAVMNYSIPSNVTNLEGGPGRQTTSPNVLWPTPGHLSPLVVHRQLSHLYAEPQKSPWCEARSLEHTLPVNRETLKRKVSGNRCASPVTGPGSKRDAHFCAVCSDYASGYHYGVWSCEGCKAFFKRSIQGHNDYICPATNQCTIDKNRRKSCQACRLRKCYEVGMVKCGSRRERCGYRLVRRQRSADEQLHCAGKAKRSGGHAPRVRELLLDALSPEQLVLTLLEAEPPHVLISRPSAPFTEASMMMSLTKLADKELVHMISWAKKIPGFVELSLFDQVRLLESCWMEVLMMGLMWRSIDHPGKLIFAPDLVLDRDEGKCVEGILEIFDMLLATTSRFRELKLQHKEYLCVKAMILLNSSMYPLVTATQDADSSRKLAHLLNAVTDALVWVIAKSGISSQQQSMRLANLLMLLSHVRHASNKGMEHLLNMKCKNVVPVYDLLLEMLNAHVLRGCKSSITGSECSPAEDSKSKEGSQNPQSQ"}, "[6]": {"molecular_target": "Protein-tyrosine kinase 2-beta (Homo sapiens, UniProt Q14289)", "sequence (Q14289 whole entry)": "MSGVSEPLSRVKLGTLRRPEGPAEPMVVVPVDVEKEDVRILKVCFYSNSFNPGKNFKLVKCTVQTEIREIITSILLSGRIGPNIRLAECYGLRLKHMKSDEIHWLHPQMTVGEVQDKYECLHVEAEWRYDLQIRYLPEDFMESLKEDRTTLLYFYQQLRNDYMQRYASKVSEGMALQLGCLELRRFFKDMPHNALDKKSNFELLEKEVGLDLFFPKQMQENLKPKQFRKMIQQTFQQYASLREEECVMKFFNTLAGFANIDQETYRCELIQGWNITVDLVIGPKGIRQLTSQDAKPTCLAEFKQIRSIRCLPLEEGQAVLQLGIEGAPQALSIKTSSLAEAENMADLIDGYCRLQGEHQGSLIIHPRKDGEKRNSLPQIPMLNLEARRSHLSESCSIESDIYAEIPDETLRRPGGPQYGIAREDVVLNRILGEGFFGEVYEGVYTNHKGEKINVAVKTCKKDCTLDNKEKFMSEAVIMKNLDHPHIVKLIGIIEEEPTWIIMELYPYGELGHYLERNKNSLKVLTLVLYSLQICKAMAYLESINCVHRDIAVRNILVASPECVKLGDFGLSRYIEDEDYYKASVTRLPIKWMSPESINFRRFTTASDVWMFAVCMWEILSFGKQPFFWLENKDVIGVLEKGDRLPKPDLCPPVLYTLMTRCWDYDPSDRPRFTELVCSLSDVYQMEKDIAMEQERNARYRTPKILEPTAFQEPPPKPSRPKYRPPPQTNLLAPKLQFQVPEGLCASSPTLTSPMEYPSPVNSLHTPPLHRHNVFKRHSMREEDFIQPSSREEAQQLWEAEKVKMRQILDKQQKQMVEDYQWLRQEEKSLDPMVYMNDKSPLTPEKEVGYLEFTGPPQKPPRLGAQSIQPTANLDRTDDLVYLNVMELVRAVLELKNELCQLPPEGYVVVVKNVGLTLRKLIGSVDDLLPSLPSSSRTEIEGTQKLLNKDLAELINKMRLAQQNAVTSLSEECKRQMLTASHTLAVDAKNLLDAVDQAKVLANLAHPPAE"}, "[7]": {"experiment": "Luminescence Cell-Based Dose Confirmation to Identify Activators of 5'UTR Stem-Loop Driven Alpha-Synuclein mRNA Translation in H4 Neuroglioblastoma Cells. [Related pubchem assays: 1829 (Project Summary), 1814 (Primary HTS)]", "format": "functional"}, "Mucolipin-3 [8]": {"molecular_target": "T3, Mucolipin-3 (Homo sapiens, UniProt Q8TDD5)", "T3 sequence (Q8TDD5 whole entry)": "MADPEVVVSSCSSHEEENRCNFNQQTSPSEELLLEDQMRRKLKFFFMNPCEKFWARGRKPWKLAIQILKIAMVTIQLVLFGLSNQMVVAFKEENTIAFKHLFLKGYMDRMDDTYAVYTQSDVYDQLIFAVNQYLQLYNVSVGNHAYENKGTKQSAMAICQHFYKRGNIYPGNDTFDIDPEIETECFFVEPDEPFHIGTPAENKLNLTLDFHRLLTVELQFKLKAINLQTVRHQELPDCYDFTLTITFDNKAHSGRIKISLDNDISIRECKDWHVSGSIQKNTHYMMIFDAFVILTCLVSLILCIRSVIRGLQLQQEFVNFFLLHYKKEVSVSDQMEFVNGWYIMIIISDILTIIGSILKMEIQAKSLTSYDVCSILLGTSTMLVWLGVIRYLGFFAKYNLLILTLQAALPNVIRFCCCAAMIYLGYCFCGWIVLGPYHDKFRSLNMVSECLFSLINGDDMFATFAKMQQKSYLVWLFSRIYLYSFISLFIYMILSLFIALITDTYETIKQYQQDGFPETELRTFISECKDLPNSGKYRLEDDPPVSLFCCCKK", "experiment": "human mucolipin-3 activators, concentration-response – cell-based, calcium fluorescence, dose response (AID 2510)", "format": "functional"}, "Mucolipin-3 [9]": {"molecular_target": "T3, Mucolipin-3", "experiment": "Dose response cell-based high-throughput screening assay for agonists of the transient receptor potential channel ML3 (TRPML3). [Related pubchem assays: 1526, 1424, 1448 ]", "format": "functional"}, "Ion channel NompC [10]": {"molecular_target": "T4, Ion channel NompC (Danio rerio, UniProt Q7T1G6)", "T4 sequence (Q7T1G6 whole entry)": "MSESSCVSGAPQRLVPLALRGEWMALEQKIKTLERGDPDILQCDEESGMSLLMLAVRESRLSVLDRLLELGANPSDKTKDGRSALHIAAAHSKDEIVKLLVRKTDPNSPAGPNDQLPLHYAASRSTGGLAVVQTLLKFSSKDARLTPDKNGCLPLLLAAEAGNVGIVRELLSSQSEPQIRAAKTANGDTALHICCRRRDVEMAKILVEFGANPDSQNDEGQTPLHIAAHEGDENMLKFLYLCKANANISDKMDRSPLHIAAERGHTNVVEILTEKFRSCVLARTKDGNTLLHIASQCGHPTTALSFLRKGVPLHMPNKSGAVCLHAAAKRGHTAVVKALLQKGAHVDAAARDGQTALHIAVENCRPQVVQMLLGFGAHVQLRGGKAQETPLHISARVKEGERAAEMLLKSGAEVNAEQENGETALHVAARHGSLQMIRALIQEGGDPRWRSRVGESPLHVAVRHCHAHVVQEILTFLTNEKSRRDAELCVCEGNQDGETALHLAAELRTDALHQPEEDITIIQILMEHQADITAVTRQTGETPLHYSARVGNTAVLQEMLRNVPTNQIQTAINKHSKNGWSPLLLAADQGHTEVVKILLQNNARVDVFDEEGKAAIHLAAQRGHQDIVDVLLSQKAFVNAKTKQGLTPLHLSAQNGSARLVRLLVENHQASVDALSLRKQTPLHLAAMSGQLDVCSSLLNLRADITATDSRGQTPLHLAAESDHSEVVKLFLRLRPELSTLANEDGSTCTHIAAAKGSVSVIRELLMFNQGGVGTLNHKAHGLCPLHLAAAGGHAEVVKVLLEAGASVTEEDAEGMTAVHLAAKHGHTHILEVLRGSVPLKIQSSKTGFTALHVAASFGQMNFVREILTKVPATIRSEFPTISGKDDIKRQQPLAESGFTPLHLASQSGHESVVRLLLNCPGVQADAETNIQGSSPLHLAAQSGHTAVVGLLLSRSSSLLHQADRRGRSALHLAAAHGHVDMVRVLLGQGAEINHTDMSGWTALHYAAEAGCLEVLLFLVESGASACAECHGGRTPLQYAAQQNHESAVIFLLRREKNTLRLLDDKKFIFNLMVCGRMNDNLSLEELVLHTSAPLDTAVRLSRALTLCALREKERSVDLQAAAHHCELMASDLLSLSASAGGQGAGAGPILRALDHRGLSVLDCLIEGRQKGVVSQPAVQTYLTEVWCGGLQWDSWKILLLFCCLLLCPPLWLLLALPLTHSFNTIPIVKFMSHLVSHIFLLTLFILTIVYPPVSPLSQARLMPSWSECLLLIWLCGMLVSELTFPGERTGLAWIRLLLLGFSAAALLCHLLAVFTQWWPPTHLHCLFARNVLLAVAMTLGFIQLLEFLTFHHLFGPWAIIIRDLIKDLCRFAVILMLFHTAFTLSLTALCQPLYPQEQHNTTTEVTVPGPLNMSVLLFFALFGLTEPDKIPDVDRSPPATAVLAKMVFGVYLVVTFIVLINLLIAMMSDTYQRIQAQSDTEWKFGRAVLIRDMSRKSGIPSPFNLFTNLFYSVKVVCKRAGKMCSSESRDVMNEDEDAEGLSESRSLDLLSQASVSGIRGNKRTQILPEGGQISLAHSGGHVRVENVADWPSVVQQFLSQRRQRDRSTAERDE", "experiment": "Late stage counterscreen for the probe development effort to identify selective agonists of the Transient Receptor Potential Channels 3 (TRPML3): fluorescence-based cell-based dose response assay for TRPN1 agonists.", "format": "functional"}, "Ion channel NompC [11]": {"molecular_target": "T4, Ion channel NompC", "experiment": "Fluorescence counterscreen assay for TRPML3 agonists: dose response cell-based high-throughput screening assay to identify agonists of the transient receptor potential channel N1 (TRPN1). [Related pubchem assays: 1526, 1424, 1448 ]", "format": "functional"}}, "note": "The source made the active and inactive calls.", "data": [{"smiles": "O=C1Nc2ccc(F)cc2/C1=C1/Nc2ccccc2/C1=N\\O", "values": [{"measurement": "IC50", "setting": "Danio rerio", "value": "380 nM (not active)"}]}, {"smiles": "CCc1c(C)nc(SCC(=O)c2cccs2)c(C#N)c1C", "values": [{"measurement": "EC50", "setting": "[1]", "value": "332 nM (active)"}, {"measurement": "EC50", "setting": "[2]", "value": "11500 nM (inconclusive)"}, {"measurement": "EC50", "setting": "[3]", "value": "< 100 nM (inconclusive)"}, {"measurement": "EC50", "setting": "H4", "value": "149 nM (active)"}, {"measurement": "EC50", "setting": "[4]", "value": "36700 nM (inconclusive)"}, {"measurement": "EC50", "setting": "[5]", "value": "302 nM (active)"}, {"measurement": "IC50", "setting": "Estrogen receptor beta", "value": "> 50000 nM (not active)"}, {"measurement": "IC50", "setting": "[6]", "value": "> 69500 nM (not active)"}, {"measurement": "EC50", "setting": "[7]", "value": "552 nM (active)"}]}, {"smiles": "CCOc1ccc(S(=O)(=O)N2CCCCCC2)c2ccccc12", "values": [{"measurement": "EC50", "setting": "Mucolipin-3 [8]", "value": "950 nM (active)"}, {"measurement": "EC50", "setting": "Mucolipin-3 [9]", "value": "1030 nM (active)"}, {"measurement": "EC50", "setting": "Ion channel NompC [10]", "value": "> 29900 nM (not active)"}, {"measurement": "EC50", "setting": "Ion channel NompC [11]", "value": "> 29900 nM (not active)"}]}]}
